We go through 27 molecules from EP2970215B1, “PYRROLIDINE DERIVATIVES, PHARMACEUTICAL COMPOSITIONS CONTAINING THEM, AND THEIR USE IN THERAPY” (AbbVie Deutschland GmbH & Co. KG, priority 2013, dated 2014).

SMILES strings stand for the structures. Some results are limits rather than exact numbers.

For one experiment, the target named is T1, human GlyT1c transporter (Homo sapiens, UniProt P48067).
T1 construct: expressed in transfected cells; host or cells: CHO cells (recombinant; line hGlyT1c_5_CHO is named for the uptake assay)
T1 sequence (P48067 1-706): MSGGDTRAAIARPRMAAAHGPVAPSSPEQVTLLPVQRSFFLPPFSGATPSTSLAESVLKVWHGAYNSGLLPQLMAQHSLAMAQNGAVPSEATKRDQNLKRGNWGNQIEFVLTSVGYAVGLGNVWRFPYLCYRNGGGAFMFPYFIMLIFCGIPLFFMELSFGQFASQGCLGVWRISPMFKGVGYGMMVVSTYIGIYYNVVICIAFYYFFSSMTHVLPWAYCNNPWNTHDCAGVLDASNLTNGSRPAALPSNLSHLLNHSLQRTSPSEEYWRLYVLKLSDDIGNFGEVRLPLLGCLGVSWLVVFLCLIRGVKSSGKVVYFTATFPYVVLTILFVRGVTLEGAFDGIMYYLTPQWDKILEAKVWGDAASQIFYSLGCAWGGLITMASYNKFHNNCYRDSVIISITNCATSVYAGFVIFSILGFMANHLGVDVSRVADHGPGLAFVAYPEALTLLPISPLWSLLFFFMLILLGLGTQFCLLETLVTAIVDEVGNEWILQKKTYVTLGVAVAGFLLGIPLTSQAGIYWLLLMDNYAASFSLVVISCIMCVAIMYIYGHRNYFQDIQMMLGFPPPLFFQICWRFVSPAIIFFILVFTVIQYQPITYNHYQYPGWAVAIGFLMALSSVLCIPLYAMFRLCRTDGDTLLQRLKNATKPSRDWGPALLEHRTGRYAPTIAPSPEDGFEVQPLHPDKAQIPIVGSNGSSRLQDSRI
Nature of the experiment: Radioligand binding assay using recombinant CHO cell membranes expressing human GlyT1. The following applies: radioligand binding to human GlyT1c transporter-expressing membranes. From the text:
2. Radioligand binding assays using recombinant CHO cell membranes expressing human GlyT1: […]
Consider `Cn1cnc(S(=O)(=O)N2C[C@@H](Nc3cccc(C(F)(F)F)c3)[C@H](c3ccccn3)C2)c1` (relative stereo) [Example 344, trans-1-[(1-methyl-1H-imidazol-4-yl)sulfonyl]-4-(pyridin-2-yl)-N-[3-(trifluoromethyl)phenyl]pyrrolidin-3-amine], for which the Ki – broadly, the equilibrium dissociation constant of an inhibitor or competing ligand from its target – is ≤ 0.1 µM.
For the molecule `Cn1cnc(S(=O)(=O)N2C[C@H](Nc3cnc(N4CCCC4)cn3)[C@@H](c3ccccc3)C2)c1` [Example 413, N-{(3R,4S)-1-[(1-methyl-1H-imidazol-4-yl)sulfonyl]-4-phenylpyrrolidin-3-yl}-5-(pyrrolidin-1-yl)pyrazin-2-amine], the Ki was ≤ 10 µM.
Turning to `Cn1cnc(S(=O)(=O)N2C[C@@H](NCc3ccc(Cl)cc3Cl)[C@H](c3cccnc3)C2)c1` (relative stereo) [Example 286, trans-N-(2,4-dichlorobenzyl)-1-[(1-methyl-1H-imidazol-4-yl)sulfonyl]-4-(pyridin-3-yl)pyrrolidin-3-amine], the Ki was ≤ 10 µM.
The same measure, in the same setting: the same measure for `Cn1cnc(S(=O)(=O)N2C[C@@H](Nc3ccc(F)c(OC(F)(F)F)c3)[C@H](C3CCCCO3)C2)c1` (stereo partly drawn) [Example 741, (3S,4R)-N-[4-fluoro-3-(trifluoromethoxy)phenyl]-1-[(1-methyl-1H-imidazol-4-yl)sulfonyl]-4-(tetrahydro-2H-pyran-2-yl)pyrrolidin-3-amine]: ≤ 0.1 µM; for `CCCCOc1cc(N[C@H]2CN(S(=O)(=O)c3cn(C)cn3)C[C@@H]2c2ccc(F)cc2)ncn1` [Example 717, 6-butoxy-N-{(3R,4S)-4-(4-fluorophenyl)-1-[(1-methyl-1H-imidazol-4-yl)sulfonyl]pyrrolidin-3-yl}pyrimidin-4-amine]: ≤ 0.1 µM.
Consider `Cn1cnc(S(=O)(=O)N2C[C@@H](Nc3cccc(C(F)(F)F)c3)[C@H](c3cccc(F)c3)C2)c1` (relative stereo) [Example 189, trans-4-(3-fluorophenyl)-1-[(1-methyl-1H-imidazol-4-yl)sulfonyl]-N-[3-(trifluoromethyl)phenyl]pyrrolidin-3-amine], for which the Ki is ≤ 0.1 µM.
With `Cn1cnc(S(=O)(=O)N2C[C@@H](NC(=O)c3cc(Cl)cc(Cl)c3)[C@H](c3ccccc3)C2)c1` (relative stereo) [Example 30, 3,5-dichloro-N-{trans-1-[(1-methyl-1H-imidazol-4-yl)sulfonyl]-4-phenylpyrrolidin-3-yl}benzamide], the inhibitory constant (Ki) was ≤ 10 µM.
The same measure, in the same setting: to `Cn1cnc(S(=O)(=O)N2C[C@@H](NC(=O)c3ccc(C(F)(F)F)cc3)[C@H](c3ccccc3)C2)c1` (relative stereo) [Example 37, N-{trans-1-[(1-methyl-1H-imidazol-4-yl)sulfonyl]-4-phenylpyrrolidin-3-yl}-4-(trifluoromethyl)benzamide] belongs ≤ 1 µM; to `COc1ccc(S(=O)(=O)N2C[C@@H](NC(=O)c3cc(Cl)cc(Cl)c3)[C@H](c3ccccc3)C2)cc1` (relative stereo) [Example 135], > 10 µM.
On the same count and under the same terms, to `Cn1cnc(S(=O)(=O)N2C[C@@H](NC(=O)c3cccc(C(F)(F)F)c3Cl)[C@H](c3cccc(F)c3)C2)c1` (relative stereo) [Example 55, 2-chloro-N-{trans-4-(3-fluorophenyl)-1-[(1-methyl-1H-imidazol-4-yl)sulfonyl]pyrrolidin-3-yl}-3-(trifluoromethyl)benzamide] belongs ≤ 1 µM; to `Cn1cnc(S(=O)(=O)N2C[C@@H](Nc3cccc(Cl)c3)[C@H](c3ccc(F)cc3)C2)c1` (relative stereo) [Example 94, trans-N-(3-chlorophenyl)-4-(4-fluorophenyl)-1-[(1-methyl-1H-imidazol-4-yl)sulfonyl]pyrrolidin-3-amine], ≤ 0.01 µM; to `Cn1cnc(S(=O)(=O)N2C[C@@H](NC(=O)c3ccc(F)cc3)[C@H](c3ccccc3)C2)c1` (relative stereo) [Example 19, 4-fluoro-N-{trans-1-[(1-methyl-1H-imidazol-4-yl)sulfonyl]-4-phenylpyrrolidin-3-yl}benzamide], ≤ 10 µM.
Same read-out and setting: to `Cn1cnc(S(=O)(=O)N2C[C@H](Nc3ccc4c(c3)CCCC4)[C@@H](c3ccccc3)C2)c1` [Example 657, (3R,4S)-1-[(1-methyl-1H-imidazol-4-yl)sulfonyl]-4-phenyl-N-(5,6,7,8-tetrahydronaphthalen-2-yl)pyrrolidin-3-amine] belongs ≤ 1 µM; to `Cn1cnc(S(=O)(=O)N2C[C@H](NCc3ccc(C(F)(F)F)cc3Cl)[C@@H](c3ccc(F)cc3)C2)c1` [Example 322, (3R,4S)-N-[2-chloro-4-(trifluoromethyl)benzyl]-4-(4-fluorophenyl)-1-[(1-methyl-1H-imidazol-4-yl)sulfonyl]pyrrolidin-3-amine], ≤ 0.01 µM.
Take `COc1cccc(C(=O)N[C@@H]2CN(S(=O)(=O)c3cn(C)cn3)C[C@H]2c2ccccc2)c1` (relative stereo) [Example 21, 3-methoxy-N-{trans-1-[(1-methyl-1H-imidazol-4-yl)sulfonyl]-4-phenylpyrrolidin-3-yl}benzamide]: the inhibition constant Ki was ≤ 10 µM.
Still for that read-out and setting: the same measure for `CCC(CN[C@H]1CN(S(=O)(=O)c2cn(C)cn2)C[C@@H]1c1ccccc1)C(C)C` (stereo partly drawn) [Example 470, (3R,4S)-N-(2-ethyl-3-methylbutyl)-1-[(1-methyl-1H-imidazol-4-yl)sulfonyl]-4-phenylpyrrolidin-3-amine]: ≤ 10 µM.
In the case of `Cc1ncsc1CN[C@H]1CN(S(=O)(=O)c2cn(C)cn2)C[C@@H]1c1ccccc1` [Example 434, (3R,4S)-1-[(1-methyl-1H-imidazol-4-yl)sulfonyl]-N-[(4-methyl-1,3-thiazol-5-yl)methyl]-4-phenylpyrrolidin-3-amine], the Ki is ≤ 10 µM.
On the same count and under the same terms, to `CCCNCCO[C@@H]1CN(S(=O)(=O)c2cn(C)cn2)C[C@H]1c1ccc(F)cc1` (relative stereo) [Example 688, N-[2-({Trans-4-(4-fluorophenyl)-1-[(1-methyl-1H-imidazol-4-yl)sulfonyl]pyrrolidin-3-yl}oxy)ethyl]propan-1-amine] belongs ≤ 1 µM; to `Cn1cnc(S(=O)(=O)N2C[C@H](NCCOc3ccc(F)cc3)[C@@H](c3ccc(F)cc3)C2)c1` [Example 667, (3R,4S)-N-[2-(4-fluorophenoxy)ethyl]-4-(4-fluorophenyl)-1-[(1-methyl-1H-imidazol-4-yl)sulfonyl]pyrrolidin-3-amine], ≤ 0.1 µM.
The same measure, in the same setting: the same measure for `Cn1cnc(S(=O)(=O)N2C[C@@H](Nc3cccc(OC(F)(F)F)c3)[C@H](c3ccccc3)C2)c1` (relative stereo) [Example 226, trans-1-[(1-methyl-1H-imidazol-4-yl)sulfonyl]-4-phenyl-N-[3-(trifluoromethoxy)phenyl]pyrrolidin-3-amine]: ≤ 0.01 µM.
On the same count and under the same terms, the same measure for `Cc1ccc(CCN[C@H]2CN(S(=O)(=O)c3cn(C)cn3)C[C@@H]2c2ccccc2)cc1` [Example 461, (3R,4S)-1-[(1-methyl-1H-imidazol-4-yl)sulfonyl]-N-[2-(4-methylphenyl)ethyl]-4-phenylpyrrolidin-3-amine]: ≤ 1 µM; for `O=C(N[C@@H]1CN(S(=O)(=O)c2cn[nH]c2)C[C@H]1c1ccccc1)c1cccc(C(F)(F)F)c1Cl` (relative stereo) [Example 46, 2-chloro-N-[trans-4-phenyl-1-(1H-pyrazol-4-ylsulfonyl)pyrrolidin-3-yl]-3-(trifluoromethyl)benzamide]: ≥ 10 µM; for `Cn1cnc(S(=O)(=O)N2C[C@@H](NC(=O)c3ccccc3Cl)[C@H](c3ccccc3)C2)c1` (relative stereo) [Example 14, 2-chloro-N-{trans-1-[(1-methyl-1H-imidazol-4-yl)sulfonyl]-4-phenylpyrrolidin-3-yl}benzamide]: ≤ 1 µM.
Consider `CC(=O)Nc1ncc(S(=O)(=O)N2CC(Nc3ccc(F)c(F)c3)C(c3ccccc3)C2)s1` (stereo not drawn) [Example 499, N-[5-({3-[(3,4-difluorophenyl)amino]-4-phenylpyrrolidin-1-yl}sulfonyl)-1,3-thiazol-2-yl]acetamide], for which the Ki is ≥ 10 µM.
On the same count and under the same terms, to `Cn1cnc(S(=O)(=O)N2C[C@@H](Oc3cc(C(F)(F)F)ccn3)[C@H](c3ccc(F)cc3)C2)c1` (relative stereo) [Example 379, 2-({trans-4-(4-fluorophenyl)-1-[(1-methyl-1H-imidazol-4-yl)sulfonyl]pyrrolidin-3-yl}oxy)-4-(trifluoromethyl)pyridine] belongs ≤ 0.1 µM.
Regarding `COC(=O)c1csc(S(=O)(=O)N2CC(Nc3ccc(F)c(F)c3)C(c3ccccc3)C2)c1OC` (stereo not drawn) [Example 491, methyl 5-({3-[(3,4-difluorophenyl)amino]-4-phenylpyrrolidin-1-yl}sulfonyl)-4-methoxythiophene-3-carboxylate], the Ki is ≤ 10 µM.

Staying with this experiment, now noted: radioligand binding, recombinant CHO cell membranes expressing human GlyT1c.
Consider `Cc1cccc(N[C@@H]2CN(S(=O)(=O)c3cn(C)cn3)C[C@H]2C2CCOC2)c1` (relative stereo) [Example 828, trans-1-[(1-methyl-1H-imidazol-4-yl)sulfonyl]-N-(3-methylphenyl)-4-(tetrahydrofuran-3-yl)pyrrolidin-3-amine], for which the Ki was ≤ 10 µM.
